Assay results taken from US4213895A, “N-[N-[N-[ N-[N-(5-Oxo-L-prolyl)-L-histidyl]-L-tryptophyl]-L-seryl]-L-tyrosyl]glycin e azide, an intermediate of the releasing agent of luteinizing hormone (LW) and of follicle stimulating hormone (FSH)” (American Home Products Corporation, priority 1979, dated 1980).

Assays:
[1] = test system: LH- and FSH-releasing; experiment: Bioassays, not specified, comparison with the natural hormone; settings: diacetate salt
Text: Said last-named compound (VI) is condensed by means of the azide method via the azide, N-[N-[N-[N-[N-(5-oxo-L-prolyl)-L-histidyl]-L-tryptophyl]-L-seryl]-L-tyrosyl]glycine azide, with N-[N-[N-(N-leucyl)-L-arginyl]-L-prolyl]glycinamide diacetate (V) to yield the desired decapeptide 5-oxo-L-prolyl-L-histidyl-L-tryptophyl-L-seryl-L-tyrosylglycyl-L-leucyl-L- arginyl-L-prolylglycinamide (I) which is isolated in the form of its diacetate salt. The latter salt may be converted, if desired, into a different acid addition salt, e.g. a salt with a pharmaceutically acceptable acid, by treatment with the appropriate ion exchange resin in the manner described by Boissonas et al., Helv. Chim. Acta 43, 1349 (1960). Suitable ion exchange resins are strongly basic anion exchange resins, for example those listed in Greenstein and Winitz "Chemistry of the Amino Acids", Hohn Wiley and Sons, Inc., New York and London 1961, Vol. 2, p. 1456. Basically substituted cross-linked polystyrene resins such as Amerlite IRA-400 or IRA-410 are preferred. The above diacetate may also be converted to a salt of low solubility in body fluids by treatment with a slightly water-soluble pharmaceutically acceptable acid. The acid addition salts of the LH- and FSH-releasing hormone produced by the process of this invention with pharmacologically acceptable acids are biologically fully equivalent to the natural hormone. […]

[2] = test system: LH- and FSH-releasing; experiment: LH- and FSH-releasing activity, radioimmunoassay described by Niswender et al.; settings: acid addition salt
Text: (§1) Exp. Biol. Med., 128, 807 (1968).

[3] = test system: induction of ovulation in the hamster; experiment: Induction of ovulation in the hamster (Arimura et al., Science 174, 511); format: in vivo; settings: acid addition salt
Text: as §1

[4] = test system: induction of ovulation in the rat; experiment: Induction of ovulation in the rat, modification of the assay of Arimura et al., Endocrinology 80, 515; format: in vivo; settings: acid addition salt
Text: as §1

CC(C)C[C@H](NC(=O)CNC(=O)[C@H](Cc1ccc(O)cc1)NC(=O)[C@H](CO)NC(=O)[C@H](Cc1c[nH]c2ccccc12)NC(=O)[C@H](Cc1c[nH]cn1)NC(=O)[C@@H]1CCC(=O)N1)C(=O)N[C@@H](CCCNC(=N)N)C(=O)N1CCC[C@H]1C(=O)NCC(N)=O [I, 5-oxo-L-prolyl-L-histidyl-L-tryptophyl-L-seryl-L-tyrosylglycyl-L-leucyl-L-arginyl-L-prolylglycinamide] was tested, and the “potency in bioassays relative to the natural product” value [1] was “as potent as the latter”, the “LH- and FSH-releasing activity relative to the natural hormone” value [2] was “as active as the natural hormone” and the “activity in induction of ovulation relative to the natural hormone” value [3] was “equally active”. For the same molecule, the “activity in induction of ovulation relative to the natural hormone” value [4] was “equally active”.
